Reference: US20190175633A1, “REACTIVE, LIPOPHILIC NUCLEOSIDE BUILDING BLOCKS FOR THE SYNTHESIS OF HYDROPHOBIC NUCLEIC ACIDS” (Ionovation GmbH, priority 2017, published 2019)
“Also recorded” adds a separate entry of the source.

Columns and labels:
IGR-OV1 cells = experiment: Oncological test against IGR-OV1 cells; assay type: cell-based, human; conditions: IGR-OV1, FIGS. 12 and 13
Text: (§1) FIGS. 10 to 17 show the activity of compounds ESP_2.2, ESP_2.5 and ESP_31 according to the invention as well as the comparative examples ESP_2 and ESP_3 (Table 4) in relation to the concentration employed against various different cancer cells. […] The x-axis depicts the molar concentration of the respective compound on a logarithmical scale.
The epithelial morphology of IGR-OV1 cells was retained during in vitro and in vivo passages. Two cytogenetic markers characterize IGR-OV1 cells: a paracentric inversion of chromosome 3, and a translocation between chromosomes 2 and 5. These characteristics make the IGR-OV1 cell line a suitable experimental model for the treatment of human ovarian carcinomas and for biological studies of human solid tumors.

[1] = tested on: human colorectal adenocarcinoma cell line HCT15; assay type: cell-based; conditions: for activity on cell growth (growth inhibition / cytotoxic effect): HCT-15, FIGS. 14 and 15
Text: The x-axis depicts the molar concentration of the respective compound on a logarithmical scale.

[2] = tested on: primary clear renal cell adenocarcinoma (cell line 786-0); experiment: Oncological test against 786-0 cells; assay type: cell-based; conditions: 786-0, FIGS. 16 and 17
Text: as §1
This cell line is derived from a primary clear renal cell adenocarcinoma. The cells display both microvilli and desmosomes, and can be grown in soft agar. The cells produce a PTH like peptides that is identical to peptides produced by breast and lung tumors. The peptide has an N terminal sequence similar to PTH, has PTH like activity, and has a molecular weight of 6000 daltons.

various cancer cells = experiment: Oncological tests, summary over FIGS. 10 to 17; assay type: cell-based; conditions: ovarian, colon and kidney cancer cells
Text: as §1

| Compound | melting point [°C] | also measured |
| --- | --- | --- |
| CCCCCCCCCCCCCCCCCCN(CCBr)CCCCCCCCCCCCCCCCCC | 69 to 71 | – |
| CCCCCCCCCCCCCCCCCCN1CCCC1 | 25 to 27 | – |
| COc1ccc(C(OC[C@H]2O[C@@H](n3cnc4c(=O)n(C/C=C(\C)CCC=C(C)C)cnc43)C[C@@H]2O)(c2ccccc2)c2ccc(OC)cc2)cc1 [Compound 4a, 9-((2R,4S,5R)-5-((Bis(4-methoxyphenyl)(phenyl)methoxy)-methyl)-4-hydroxytetrahydrofuran-2-yl)-1-((E)-3,7-di-methylocta-2,6-dienyl)-1H-purin-6(9H)-one] | 74 | – |
| COc1ccc(C(OC[C@H]2O[C@@H](n3cnc4c(=O)n(C/C=C(\C)CC/C=C(\C)CCC=C(C)C)cnc43)C[C@@H]2O)(c2ccccc2)c2ccc(OC)cc2)cc1 [Compound 4b, 9-((2R,4S,5R)-5-((Bis(4-methoxyphenyl)(phenyl)methoxy)-methyl)-4-hydroxytetrahydrofuran-2-yl)-1-((2E,6E)-3,7,11-trimethyldodeca-2,6,10-trienyl)-1H-purin-6(9H)-on] | 68 | – |
| CCCCCCCCCC1(CCCCCCCCC)O[C@@H]2[C@H](O1)[C@@H](CO)O[C@H]2n1ccc(=O)[nH]c1=O [Compound 25b, 1-((3aR,4R,6R,6aR)-6-(hydroxymethyl)-2,2-dinonyltetrahydrofuro[3,4-d][1,3]dioxol-4-yl)pyrimidin-2,4(1H,3H)-dione] | 69.8 | – |
| CCCCCCCCCCCCCC1(CCCCCCCCCCCCC)O[C@@H]2[C@H](O1)[C@@H](CO)O[C@H]2n1ccc(=O)[nH]c1=O [Compound 25c, 1-((3aR,4R,6R,6aR)-6-(hydroxymethyl)-2,2-ditridecyltetrahydrofuro[3,4-d][1,3]dioxol-4-yl)pyrimidin-2,4(1H,3H)-dione] | 90.1 | – |
| CCCCCCCCCCCCCCCC1(CCCCCCCCCCCCCCC)OC2C(CO)OC(n3ccc(=O)[nH]c3=O)C2O1 (stereo not drawn) [Compound 25d, 1-(6-Hydroxymethyl-2,2-dipentadecyl-tetrahydro-furo[3,4-d][1,3]dioxol-4-yl)-1H-pyrimidin-2,4-dione] | 93 | – |
| CCCCCCCCCCCCCCCCCCN(CCCCCCCCCCCCCCCCCC)CC(=O)O [Compound 37, N,N-dioctadecylglycine] | 102 to 103 | – |
| CCCCCCCCCCCCCCCCCCN(CCCCCCCCCCCCCCCCCC)C(C)C(=O)OC (stereo not drawn) [Compound 41, Methyl N,N-dioctadecyl-2-aminopropionate] | 44 to 45 | – |
| CCCCCCCCCCCCCCCCCCN(CCCO)CCCCCCCCCCCCCCCCCC [Compound 42, 3-(Dioctadecylamino)propanol] | 48 to 49 | – |
| CCCCCCCCCCCCCCCCCCN(CCCCCCCCCCCCCCCCCC)C(=O)CCC(=O)O [Compound 46, 4-(Dioctadecylamino)-4-oxobutanoic acid] | 68 to 69 | – |
| CCCCCCCCCCCCCCCCCCN(CCCCCCCCCCCCCCCCCC)C(=O)CCC(=O)OC [Compound 47, Methyl 4-(dioctadecylamino)-4-oxobutanoate] | 29 to 30 | – |
| CCCCCCCCCCCCCCCCCCN(CCCCO)CCCCCCCCCCCCCCCCCC [Compound 48a, 4-(Dioctadecylamino)butan-1-ol] | 57 to 58 | – |
| CCCCCCCCCCCCCCCCCCN(CC#CCCl)CCCCCCCCCCCCCCCCCC [Compound 51, 4-Chloro-N,N-dioctadecylbut-2-yn-1-amine] | 51 to 52 | – |
| CCCCCCCCCCCCCCCCCCN(CC#CCN(CCCCCCCCCCCCCCCCCC)CCCCCCCCCCCCCCCCCC)CCCCCCCCCCCCCCCCCC [Compound 52, N,N,N′,N′-Tetraoctadecylbut-2-yne-1,4-diamine] | 55 to 56 | – |
| C#CCN(CC#C)CCCCCCCCCCCCCCCCCC [Compound 57, N-Octadecyl-N,N-diprop-2-ynylamine] | 43 to 44 | – |
| CCCCCCCCCCCCCCCCCCNC(=O)CCC(=O)O [Compound 58, 4-(Octadecylamino)-4-oxobutanoic acid] | 124 to 125 | – |
| CCCCCCCCCCCCCCCCCCNC(=O)CCC(=O)OC [Compound 59, Methyl 4-(octadecylamino)-4-oxobutanoate] | 86 to 87 | – |
| CCCCCCCCCCCCCCCCCCNCCCCO [Compound 60, 4-(Octadecylamino)butan-1-ol] | 68 to 69 | – |
| CCCCCCCCCCCCCCCCCCNC(=O)CCCO [Compound 62, 4-Hydroxy-N-octadecylbutanamide] | 86 to 87 | – |
| C#CCN(CCCCO)CCCCCCCCCCCCCCCCCC [Compound 63, 4-[Octadecyl(prop-2-ynyl)amino]butan-1-ol] | 33 to 34 | – |
| CCOC(=O)CC[C@@]1(C)O[C@@H]2[C@H](O1)[C@@H](COC(c1ccccc1)(c1ccccc1)c1ccc(OC)cc1)O[C@H]2n1ncc(=O)[nH]c1=O [ESP_2.2, Ethyl-3-((3aR,4R,6R,6aR)-4-(3,5-dioxo-4,5-dihydro-1,2,4-triazin-2(3H)-yl)-6-(((4-methoxyphenyl)diphenylmethoxy)methyl)-2-methyltetrahydrofuro[3,4-d][1,3]dioxol-2-yl)propanoate] | – | activity on cell growth (growth inhibition / cytotoxic effect) (IGR-OV1 cells): activity of the compound could be increased; activity on cell growth (growth inhibition / cytotoxic effect) [1]: increased activity |
| CCOC(=O)CCC1(C)O[C@@H]2[C@H](O1)[C@@H](CO)O[C@H]2n1ncc(=O)n(C/C=C(\C)CC/C=C(\C)CCC=C(C)C)c1=O (stereo partly drawn) [ESP_2.5, Ethyl-3-((3aR,4R,6R,6aR)-4-(3,5-dioxo-4-((2E,6E)-3,7,11-trimethyldodeca-2,6,10-trien-1-yl)-4,5-dihydro-1,2,4-triazin-2 (3H)-yl)-6-(hydroxymethyl)-2-methyltetrahydrofuro[3,4-d][1,3]dioxol-2-yl)propanoate] | – | activity on cell growth (growth inhibition / cytotoxic effect) (IGR-OV1 cells): improved inhibition effect; activity on cell growth (growth inhibition / cytotoxic effect) [1]: increased activity; death of the cells (cytotoxic effect) ([1]; HCT-15, employed in high dosage): over 50%; activity on cell growth (growth inhibition / cytotoxic effect) [2]: high cytotoxic effect; activity / cytotoxicity against various cancer cells (various cancer cells): particular high cytotoxicity |
| O=c1ccn([C@@H]2O[C@H](CO)[C@@H](O)[C@H]2O)c(=O)[nH]1 [ESP_3, uridine, reference compound] | – | activity on cell growth (growth inhibition / cytotoxic effect) (IGR-OV1 cells): did not even cause a growth inhibition; activity on cell growth (growth inhibition / cytotoxic effect) [2]: does not show any activity at all; also recorded: did not show any activity at all |
| CCCCCCCCCC1(CCCCCCCCC)OC2[C@@H](CO)O[C@@H](n3ccc(=O)[nH]c3=O)[C@H]2O1 (stereo partly drawn) [ESP_31] | – | activity on cell growth (growth inhibition / cytotoxic effect) (IGR-OV1 cells): vast improvement with respect to the cytotoxic activity; activity on cell growth (growth inhibition / cytotoxic effect) [1]: high cytotoxic activity; activity on cell growth (growth inhibition / cytotoxic effect) [2]: cytotoxic effect |
